Paper PMC5829251, “NAD^+ analog reveals PARP-1 substrate-blocking mechanism and allosteric communication from catalytic center to DNA-binding domains” (Nature Communications, 2018)
Values joined by “and” are separate entries in the source; they are usually repeats but may differ in a detail not shown here. Equal values may be shown once.

Legend:
full-length PARP-1 = target: T1, full-length PARP-1 (Homo sapiens, UniProt P09874); experiment: Colorimetric assay of full-length PARP-1 DNA-dependent activity; type: biochemical; details: for IC50: 20 nM PARP-1, 40 nM DNA (18-bp duplex), 50 μM NAD+ (99:1 NAD+:bio-NAD+)
T1 construct: Full-length PARP-1 WT (residues 1–1014) was cloned in pET28 vector; made in house; host or cells: E. coli
Procedure: The colorimetric assay was performed as described, [28] using 20 nM of protein and 40 nM DNA (18-bp duplex). A mixture of NAD^+ and biotinylated NAD^+ (bio-NAD^+) was used at a 99:1 ratio and a final concentration of 50 µM. Reactions were allowed to proceed for 5 min before quenching. Three independent experiments were performed.

full-length PARP-1 WT = target: T2, full-length PARP-1 WT (Homo sapiens, UniProt P09874); experiment: ITC, full-length PARP-1 WT with or without DNA; type: binding; details: for KD / Kd: compound 525 μM titrated, 25°C
T2 construct: Full-length PARP-1 WT (residues 1–1014) was cloned in pET28 vector; made in house; host or cells: E. coli
Procedure: (§1) ITC experiments were performed using a MicroCal iTC200 calorimeter (GE Healthcare). BAD or benzamide at 525 μM was titrated into PARP-1 protein (50 μM for CAT WT and CAT ΔHD, 40 μM for full-length PARP-1 WT and mutants) or PARP-1 protein with DNA (20–40 μM) at 25°C. Prior to the experiment, proteins and DNA were dialyzed in 25 mM Hepes pH 8.0, 150 mM NaCl, 1 mM EDTA, and 0.1 mM TCEP. BAD and benzamide were diluted in the dialysis buffer. PARP-1/DNA complexes were assembled and incubated at RT for 30 min prior to performing the experiment. Experiments were typically designed as follows: a first injection of 0.2 μL was followed by 16 injections of 2.5 μL with a spacing of 100 s between injections. Excess heat upon each injection was integrated using an automatically adjusted base line and derived values corrected by heat of dilution. Data analysis and curve fitting were conducted using Origin 7 software. The ITC experiment for each sample was performed either two (PARP-1 WT with benzamide, PARP-1 E763/D766/D770A with benzamide, PARP-1 D766/D770A with BAD) or three times (the remaining eight samples). Table 2 lists the average KD value and stoichiometry (n) for the replicates, and the reported errors are the calculated standard deviations (representing the range of values for experiments repeated two times). We anticipate that the sub-stoichiometric n values for CAT constructs results from either the active fraction being < 100%, or the protein concentration determination being not entirely accurate. The analysis of full-length PARP-1 yielded n values around the expected value of 1.

PARP-1 = target: T3, PARP-1 (Homo sapiens, UniProt P09874); experiment: HXMS analysis of PARP-1 dynamics; details: for HX of an ART active site peptide (a.a. 901–917): 10^4 s time point, PARP-1 alone or in complex with DNA
T3 construct: Full-length PARP-1 WT (residues 1–1014) was cloned in pET28 vector; made in house; host or cells: E. coli
Procedure: Deuterium on-exchange was carried out at RT by mixing 5 µL of each sample (8 µM concentration) with 15 µL of deuterium on-exchange buffer (10 mM HEPES, pD 7.0, 150 mM NaCl, in D2O) yielding a final D2O concentration of 75%. pD values for deuterium-based buffers were calculated as pD = pH + 0.41[38]. Upon mixing with on-exchange buffer, the amide protons will be replaced over time with deuterons yielding an increased peptide mass. To quench the deuterium exchange reaction, the sample (20 µl) was mixed with 30 µl of ice-cold quench buffer (1.66 M guanidine hydrochloride, 10% glycerol, and 0.8% formic acid, for a final pH of 2.4–2.5) and rapidly frozen in liquid nitrogen. For the MS analysis, each sample (50 µL) was melted on ice and loaded onto an in-house packed pepsin column for digestion. Pepsin (Sigma) was coupled to POROS 20 AL support (Applied Biosystems), and the immobilized pepsin was packed into a column housing (2 mm × 2 cm, Upchurch). Pepsin-digested peptides were captured on TARGA C8 5 µm Piccolo HPLC column (1.0 × 5.0 mm, Higgins Analytical) and eluted through an analytical C18 HPLC column (0.3 × 75 mm, Agilent) by a shaped 12–100% buffer B gradient at 6 µL per min (Buffer A: 0.1% formic acid; Buffer B: 0.1% formic acid, 99.9% acetonitrile). The effluent was electrosprayed into the mass spectrometer. Non-deuterated (ND) PARP-1 samples were prepared in 10 mM HEPES, pH 7.0, 150 mM NaCl buffer, and mixed with the quench buffer to mimic the samples from on-exchange reaction. Peptides of ND samples were analyzed in tandem MS (LTQ Orbitrap XL, Thermo Fisher Scientific). We analyzed MS/MS data collected from these samples to identify potential PARP-1 peptides using SEQUEST (Bioworks v3.3.1, Thermo Fisher Scientific) with a peptide tolerance of 8 ppm and a fragment tolerance of 0.1 AMU. Deuterated samples were then analyzed on an Exactive Plus EMR-Orbritrap (Thermo Fisher Scientific). A MATLAB based program, ExMS[39] was used for HXMS data processing. […] The level of deuteration of individual peptides was measured by comparing them to the ND sample. […] For each peptide, we compare the extent of deuteration as measured in the FD sample to the theoretical maximal deuteration (i.e., if no back-exchange occurs); the median extent of back-exchange in our datasets is only 15%.
Peptide plotting and calculations were performed in MATLAB. […] For comparing two different HXMS datasets, we plot the percent difference of each peptide, which is calculated by subtracting the percent deuteration of one sample from that of another, and plotted according to the color legend in stepwise increments (as in Fig. 5b). […]

[1] = target: T4, full-length PARP-1 E763/D766/D770A (Homo sapiens, UniProt P09874, D766A/D770A/E763A); experiment: ITC, full-length PARP-1 E763/D766/D770A; type: binding; details: for n (stoichiometry): FL E763/D766/D770A; for KD / Kd: FL E763/D766/D770A 40 μM, without DNA, compound 525 μM titrated, 25°C
T4 construct: Full-length PARP-1 WT (residues 1–1014) was cloned in pET28 vector and site-directed mutagenesis was performed; made in house; host or cells: E. coli
Procedure: as §1

T4 sequence (P09874 whole entry E763A/D766A/D770A, the tested form may be a part): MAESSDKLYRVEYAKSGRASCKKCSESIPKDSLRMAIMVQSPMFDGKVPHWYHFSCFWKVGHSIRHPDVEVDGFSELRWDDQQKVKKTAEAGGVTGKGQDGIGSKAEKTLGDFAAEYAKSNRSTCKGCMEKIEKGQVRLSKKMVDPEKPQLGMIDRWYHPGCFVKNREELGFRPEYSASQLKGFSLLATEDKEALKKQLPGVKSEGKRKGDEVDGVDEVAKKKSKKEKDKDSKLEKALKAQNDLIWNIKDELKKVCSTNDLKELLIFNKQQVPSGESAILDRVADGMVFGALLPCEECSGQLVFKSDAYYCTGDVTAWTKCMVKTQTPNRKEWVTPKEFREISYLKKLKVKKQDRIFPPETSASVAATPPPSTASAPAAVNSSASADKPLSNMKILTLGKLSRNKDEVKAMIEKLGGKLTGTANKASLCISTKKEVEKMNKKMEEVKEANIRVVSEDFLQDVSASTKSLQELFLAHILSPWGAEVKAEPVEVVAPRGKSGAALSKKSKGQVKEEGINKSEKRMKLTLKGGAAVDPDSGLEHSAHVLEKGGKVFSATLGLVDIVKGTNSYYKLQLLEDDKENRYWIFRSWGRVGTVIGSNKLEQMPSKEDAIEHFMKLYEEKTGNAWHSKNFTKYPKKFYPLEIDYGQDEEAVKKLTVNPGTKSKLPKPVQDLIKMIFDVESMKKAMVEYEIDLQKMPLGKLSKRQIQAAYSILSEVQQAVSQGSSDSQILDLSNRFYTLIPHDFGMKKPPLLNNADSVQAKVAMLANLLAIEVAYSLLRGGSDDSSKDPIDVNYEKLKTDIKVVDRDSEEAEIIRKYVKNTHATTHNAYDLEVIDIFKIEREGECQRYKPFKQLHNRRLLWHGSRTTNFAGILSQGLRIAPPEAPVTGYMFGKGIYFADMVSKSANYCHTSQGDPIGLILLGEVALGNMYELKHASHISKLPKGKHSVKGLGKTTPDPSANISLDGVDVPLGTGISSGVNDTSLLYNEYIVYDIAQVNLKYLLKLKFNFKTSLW
T3 sequence (P09874 whole entry, the tested form may be a part): as the sequence (P09874 whole entry E763A/D766A/D770A, the tested form may be a part) above, with A763E, A766D, A770D counted along it
T1 sequence (P09874 whole entry, the tested form may be a part): as the sequence (P09874 whole entry E763A/D766A/D770A, the tested form may be a part) above, with A763E, A766D, A770D counted along it
T2 sequence (P09874 whole entry, the tested form may be a part): as the sequence (P09874 whole entry E763A/D766A/D770A, the tested form may be a part) above, with A763E, A766D, A770D counted along it

| Compound | IC50 (full-length PARP-1) | KD (full-length PARP-1 WT; FL WT 40 μM, without DNA) | n (stoichiometry) (full-length PARP-1 WT; FL WT with DNA) | Kd (full-length PARP-1 WT; FL WT with DNA (40 μM, 8 bp-duplex)) | HX in peptides localized to HD helices αB and αF (PARP-1; 10^2 s time point, PARP-1 bound to a DNA strand break) | HX of an ART active site peptide (a.a. 901–917) (PARP-1) | HX in regions outside of the CAT (domain-domain and domain-DNA interfaces) (PARP-1; PARP-1 in complex with DNA, not in the absence of DNA) | calculated KD for BAD lower than observed for all other proteins ([1]; E763/D766/D770A versus all other proteins) | n (stoichiometry) [1] | KD [1] | Kd [1] [nM] | inhibition of DNA damage-dependent activity of full-length PARP-1 (full-length PARP-1; 20 nM PARP-1, 40 nM DNA, 50 μM NAD+) | Kd (full-length PARP-1 WT; FL WT 40 μM, without DNA) [nM] | n (stoichiometry) (full-length PARP-1 WT; FL WT, without DNA) |
| --- | --- | --- | --- | --- | --- | --- | --- | --- | --- | --- | --- | --- | --- | --- |
| NC(=O)c1cccc(C2OC(COP(=O)(O)OP(=O)(O)OCC3OC(n4cnc5c(N)ncnc54)C(O)C3O)C(O)C2O)c1 (centres unmarked) [BAD, benzamide adenine dinucleotide] | 8.6 µM and 8.63 µM | no evidence of BAD binding | 1.11 + /− 0.29 | 1800 nM and 1810 nM | increased HX | only observed with PARP-1 in complex with DNA | decrease in HX | about 10 fold | 1.00 + /− 0.13 | showed evidence of binding | 380 | – | – | – |
| NC(=O)c1ccccc1 [benzamide] | 4.6 µM and 4.62 µM | bound to benzamide in the absence of DNA | – | – | – | decreased HX in the same ART peptide for both PARP-1 alone and PARP-1 in complex with DNA | – | – | 0.89 + /− 0.07 | also bound to benzamide similarly | 2990 | inhibits to a similar extent as the entire BAD molecule | 2320 | 0.88 + /− 0.01 |
